Article PMC5654082 (Malaria Journal, 2017)
Where a name gives a salt, the structure may show the parent alone.

How the values were obtained:
human OCT1 = molecular target: T1, human OCT1 (Homo sapiens, UniProt O15245); test: OCT1-mediated cellular import in transduced HEK293 cells (LC-MS/MS); format: cell-based
T1 construct: host or cells: HEK293, baculovirus transduction (CMV promoter), transient
T1 sequence (O15245 1-554): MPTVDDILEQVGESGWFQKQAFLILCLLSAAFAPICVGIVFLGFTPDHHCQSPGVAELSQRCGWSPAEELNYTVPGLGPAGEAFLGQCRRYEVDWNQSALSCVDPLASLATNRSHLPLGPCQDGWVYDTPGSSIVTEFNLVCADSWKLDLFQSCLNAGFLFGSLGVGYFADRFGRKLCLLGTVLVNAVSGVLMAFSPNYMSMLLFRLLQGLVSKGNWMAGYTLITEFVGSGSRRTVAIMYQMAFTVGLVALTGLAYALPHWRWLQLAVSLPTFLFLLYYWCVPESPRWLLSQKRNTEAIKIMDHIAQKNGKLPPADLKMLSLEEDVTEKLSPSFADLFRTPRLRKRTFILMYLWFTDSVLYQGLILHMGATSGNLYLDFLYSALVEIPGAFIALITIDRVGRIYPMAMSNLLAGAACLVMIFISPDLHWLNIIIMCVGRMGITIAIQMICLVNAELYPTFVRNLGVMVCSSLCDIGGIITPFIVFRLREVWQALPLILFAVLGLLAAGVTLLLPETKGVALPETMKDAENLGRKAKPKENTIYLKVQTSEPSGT
Method: HEK293 cells were modified to transiently express (a combination of) human OCT1, OCT2, MATE1, MATE2-K, or eYFP. Briefly, cDNA of the respective genes was cloned downstream of a CMV promoter into a baculovirus, of which passage three was used to transduce HEK293 cells. These cells were seeded in poly-D-lysine coated 24- or 96-wells plates and grown in a 37 °C incubator at 5% CO2. Growth was initiated at ~ 25% confluency using 375 or 125 μL cell and complete medium (DMEM + GlutaMAX™-I supplemented with 10% fetal bovine serum) suspension per well, respectively. After 24 h, cells were transduced with 30 µL virus (10 µL virus + 20 µL complete medium in case of 96-wells plates) or 2 × 15 µL virus for cells that required simultaneous expression of two transporters. Finally, 195 µL sodium butyrate (45 µL for 96-wells plates) was added to a final concentration of 2 mM to enhance protein expression.
HEK293 cells were seeded in 24-wells poly-D-lysine coated plates and transduced the subsequent day with OCT1 or OCT2 as described above. Three days following transduction, OCT1- or OCT2-mediated uptake of ten anti-malarials (AMO, ART, ATO, CQ, DHA, LUM, MQ, PQ, PG, and QN) was performed. NMQ served as a positive substrate for both OCT1 and OCT2 import. In short, cells were washed with 400 µL 37 °C HBSS-HEPES buffer followed by adding 150 µL HBSS buffer with 10 µM anti-malarial or NMQ to each well. After incubation for 15 min at 37 °C, import was stopped by washing with 400 µL ice-cold HBSS-HEPES buffer supplemented with 0.5% BSA. Following a second wash with 400 µL ice-cold HBSS-HEPES buffer, cells were lysed with 200 µL 50% (v/v) MeOH and 0.1% (v/v) formic acid (HCOOH) in water and samples were sent for quantification by mass spectrometry analysis (see “LC–MS/MS quantification of anti-malarials” section). […]
The affinity (KM) and maximum transport rate (Vmax) for OCT1 and OCT2 of PG were determined by analysing concentration-dependent uptake data from three independent experiments.
(§1) Import and export of PG and cycloguanil (CG) was assessed by single and double transduced HEK293 cells. […] Following the same procedure as for the cellular import assay described above, the import of 100 µM PG and CG was measured after 5 min incubation and data was plotted as mean pmol/mg/min ± SEM. […] Significant reduction in uptake (i.e. export by MATEs) was determined using ln transformation and a one-way repeated measures ANOVA with Dunnet’s post test.
Anti-malarial concentration in the cell lysates was quantified using an LC–MS/MS system consisting of a UPLC, a binary solvent manager, a vacuum degasser and an autosampler, coupled to a Xevo TQ-S micro triple quadrupole mass spectrometer. […]

MATE2-K = MATE2-K (Homo sapiens, UniProt Q86VL8); test: MATE2-K-mediated uptake in transduced HEK293 cells; format: cell-based; parameters: host or cells: HEK293, baculovirus transduction (CMV promoter), transient; conditions: 100 µM, 5 min
Chain of MATE2-K (Q86VL8 1-566 isoform Q86VL8-3): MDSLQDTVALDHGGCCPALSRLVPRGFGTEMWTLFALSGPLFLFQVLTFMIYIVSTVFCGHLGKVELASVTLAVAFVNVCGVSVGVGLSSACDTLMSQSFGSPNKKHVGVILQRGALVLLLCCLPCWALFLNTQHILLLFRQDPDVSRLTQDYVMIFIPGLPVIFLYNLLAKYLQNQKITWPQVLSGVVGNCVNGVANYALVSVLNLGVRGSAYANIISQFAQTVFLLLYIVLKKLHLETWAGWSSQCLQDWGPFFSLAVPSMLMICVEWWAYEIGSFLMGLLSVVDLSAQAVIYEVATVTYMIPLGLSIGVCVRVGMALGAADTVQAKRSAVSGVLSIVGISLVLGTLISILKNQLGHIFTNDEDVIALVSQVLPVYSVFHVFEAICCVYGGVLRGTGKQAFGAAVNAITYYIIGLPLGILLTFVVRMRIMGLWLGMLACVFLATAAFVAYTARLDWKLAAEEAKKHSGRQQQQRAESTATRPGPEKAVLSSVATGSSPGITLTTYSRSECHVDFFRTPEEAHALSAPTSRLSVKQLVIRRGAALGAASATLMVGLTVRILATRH
Method: HEK293 cells were modified to transiently express (a combination of) human OCT1, OCT2, MATE1, MATE2-K, or eYFP. Briefly, cDNA of the respective genes was cloned downstream of a CMV promoter into a baculovirus, of which passage three was used to transduce HEK293 cells. These cells were seeded in poly-D-lysine coated 24- or 96-wells plates and grown in a 37 °C incubator at 5% CO2. Growth was initiated at ~ 25% confluency using 375 or 125 μL cell and complete medium (DMEM + GlutaMAX™-I supplemented with 10% fetal bovine serum) suspension per well, respectively. […]
as §1
Anti-malarial concentration in the cell lysates was quantified using an LC–MS/MS system consisting of a UPLC, a binary solvent manager, a vacuum degasser and an autosampler, coupled to a Xevo TQ-S micro triple quadrupole mass spectrometer. […] The peak area of the most abundant product ion was used for quantification.

[1] = cited from earlier work

Row | Structure (SMILES) | Uptake by OCT1 (human OCT1; 100 µM, 5 min) [pmol/mg/min] | Uptake by MATE2-K (MATE2-K) [pmol/mg/min] | Uptake by OCT1, percentage of mock-transduced control (human OCT1; 10 µM, 15 min, 37 °C) [%] | Uptake, percentage of eYFP control cells (human OCT1; cells co-transduced with eYFP and OCT1, 1 µM, 1 min, pH 7.4) [%] | Unbound fraction [1]
1 | CC1(C)N=C(N)N=C(N)N1c1ccc(Cl)cc1 [Cycloguanil] | 139 ± 9 | 56 ± 15 |  |  | 
2 | [H]/N=C(\N/C(=N/[H])Nc1ccc(Cl)cc1)NC(C)C [Proguanil, proguanil hydrochloride] |  | 360 ± 90 | 301 ± 25 | 850 ± 60 | 0.25 [39]
